≈ marks a conversion by molar mass, not a printed value. Numbered stars: 1 amine (or outer) side, 2 acyl side, 3 side chain; on linkers, the order of the positions; unused ones are H or OH. Square brackets hold non-standard residues; d marks the D form. Peptide text beside a SMILES is read from it. MeBmt = C/C=C/C[C@@H](C)[C@@H](O)[C@H](NC)C(=O)O; NMeLeu(4-OH) = CN[C@@H](CC(C)(C)O)C(=O)O; X2 = CN(C(Sc1ccccn1)C(=O)[*:2])[*:1]; NMeL = CN[C@@H](CC(C)C)C(=O)O; NMeV = CN[C@H](C(=O)O)C(C)C; Abu = CC[C@H](N)C(=O)O
Experiments:
[1] = target: cyclophilin (Homo sapiens, UniProt P62937); assay: Test for cyclophilin binding (Fliri); conditions: ratio to cyclosporin A
Chain of cyclophilin (P62937 whole entry): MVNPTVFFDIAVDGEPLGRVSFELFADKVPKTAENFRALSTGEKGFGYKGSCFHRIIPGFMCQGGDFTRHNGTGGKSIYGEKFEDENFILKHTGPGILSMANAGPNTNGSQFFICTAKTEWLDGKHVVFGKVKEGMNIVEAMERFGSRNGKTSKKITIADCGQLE
Source text: To measure the affinity and inhibition of test compounds for cyclophilin, the test described by H. Fliri in “Antibiotics and Antiviral compounds”, 1993, Verlag Chemie, K.Krohn, H. A. Kirst, and H. Maag, eds., p 229-240 was used.

[2] = test system: HIV; format: cell-based
Source text: The inhibitory effect of test compounds on the HIV-induced cytopathic effect on the MT4 T cell line as described by R. Pauwels in J. Virol. Methods, 1988, Vol. 20, pp 309-321 was used.

[3] = Antiinflammatory activity, adjuvent arthritis test (Pearson); format: in vivo; conditions: oral, solutions in olive oil and tween 80
Experimental: The antiinflammatory activity of test compounds was determined by the adjuvent arthritis test described by Pearson, “Arthr. Rheum”, 1959, Vol. 2., 440. Test compounds were administered orally as solutions in olive oil and tween 80.

Relative IC50, i.e. IC50 (cyclosporin A)/IC50 (test compound) [1]	IC50 [2] [ng/mL]	Structure (SMILES)	ED50, dose effective in reducing the joint swelling by 50% [3] [mg/kg]
0.2	450 (≈ 0.343 µM)	C/C=C/C[C@@H](C)[C@@H](O)[C@H]1C(=O)N[C@@H](CC)C(=O)N(C)C(Sc2ccccn2)C(=O)N(C)[C@@H](CC(C)C)C(=O)N[C@@H](C(C)C)C(=O)N(C)[C@@H](CC(C)C)C(=O)N[C@@H](C)C(=O)N[C@H](C)C(=O)N(C)[C@@H](CC(C)C)C(=O)N(C)[C@@H](CC(C)C)C(=O)N(C)[C@@H](C(C)C)C(=O)N1C (stereo partly drawn) [Example 1, 3-(Pyridyl-2-thio)-cyclosporin] (HELM PEPTIDE1{[C/C=C/C[C@@H](C)[C@@H](O)[C@@H](C(=O)[*:2])N(C)[*:1]].[Abu].[CN(C(Sc1ccccn1)C(=O)[*:2])[*:1]].[meL].V.[meL].A.[dA].[meL].[meL].[meV]}$PEPTIDE1,PEPTIDE1,1:R1-11:R2$$$V2.0)	25
0.2	1000 (≈ 0.771 µM)	C/C=C/C[C@@H](C)[C@@H](O)[C@H]1C(=O)N[C@@H](CC)C(=O)N(C)C(Sc2ccccn2)C(=O)N(C)[C@@H](C(C)C)C(=O)N[C@@H](C(C)C)C(=O)N(C)[C@@H](CC(C)C)C(=O)N[C@@H](C)C(=O)N[C@H](C)C(=O)N(C)[C@@H](CC(C)C)C(=O)N(C)[C@@H](CC(C)C)C(=O)N(C)[C@@H](C(C)C)C(=O)N1C (stereo partly drawn) [Example 4, 3-(Pyridyl-2-thio)-4-methylvaline-cyclosporin] (HELM PEPTIDE1{[C/C=C/C[C@@H](C)[C@@H](O)[C@@H](C(=O)[*:2])N(C)[*:1]].[Abu].[CN(C(Sc1ccccn1)C(=O)[*:2])[*:1]].[meV].V.[meL].A.[dA].[meL].[meL].[meV]}$PEPTIDE1,PEPTIDE1,1:R1-11:R2$$$V2.0)	25
0.2	1000 (≈ 0.754 µM)	C/C=C/C[C@@H](C)[C@@H](O)[C@H]1C(=O)N[C@@H](CCC)C(=O)N(C)C(Sc2ccccn2)C(=O)N(C)[C@@H](CC(C)C)C(=O)N[C@@H](C(C)C)C(=O)N(C)[C@@H](CC(C)C)C(=O)N[C@@H](C)C(=O)N[C@H](C)C(=O)N(C)[C@@H](CC(C)C)C(=O)N(C)[C@@H](CC(C)C)C(=O)N(C)[C@@H](C(C)C)C(=O)N1C (stereo partly drawn) [Example 5, 3-(Pyridyl-2-thio)-2-norvaline-cyclosporin] (HELM PEPTIDE1{[C/C=C/C[C@@H](C)[C@@H](O)[C@@H](C(=O)[*:2])N(C)[*:1]].[Nva].[CN(C(Sc1ccccn1)C(=O)[*:2])[*:1]].[meL].V.[meL].A.[dA].[meL].[meL].[meV]}$PEPTIDE1,PEPTIDE1,1:R1-11:R2$$$V2.0)	25
0.2	1000 (≈ 0.754 µM)	C/C=C/C[C@@H](C)[C@@H](O)[C@H]1C(=O)N[C@@H](C(C)C)C(=O)N(C)C(Sc2ccccn2)C(=O)N(C)[C@@H](CC(C)C)C(=O)N[C@@H](C(C)C)C(=O)N(C)[C@@H](CC(C)C)C(=O)N[C@@H](C)C(=O)N[C@H](C)C(=O)N(C)[C@@H](CC(C)C)C(=O)N(C)[C@@H](CC(C)C)C(=O)N(C)[C@@H](C(C)C)C(=O)N1C (stereo partly drawn) [Example 6, 3-(Pyridyl-2-thio)-2-valine-cyclosporin] (HELM PEPTIDE1{[C/C=C/C[C@@H](C)[C@@H](O)[C@@H](C(=O)[*:2])N(C)[*:1]].V.[CN(C(Sc1ccccn1)C(=O)[*:2])[*:1]].[meL].V.[meL].A.[dA].[meL].[meL].[meV]}$PEPTIDE1,PEPTIDE1,1:R1-11:R2$$$V2.0)	25
0.2	1000 (≈ 0.753 µM)	C/C=C/C[C@@H](C)[C@@H](O)[C@H]1C(=O)N[C@@H](CC)C(=O)N(C)C(Sc2ccccn2)C(=O)N(C)[C@@H](CC(C)C)C(=O)N[C@@H](C(C)C)C(=O)N(C)[C@@H](CC(C)C)C(=O)N[C@@H](C)C(=O)N[C@H](CO)C(=O)N(C)[C@@H](CC(C)C)C(=O)N(C)[C@@H](CC(C)C)C(=O)N(C)[C@@H](C(C)C)C(=O)N1C (stereo partly drawn) [Example 7, 3-(Pyridyl-2-thio)-8-(D)-serine-cyclosporin] (HELM PEPTIDE1{[C/C=C/C[C@@H](C)[C@@H](O)[C@@H](C(=O)[*:2])N(C)[*:1]].[Abu].[CN(C(Sc1ccccn1)C(=O)[*:2])[*:1]].[meL].V.[meL].A.[dS].[meL].[meL].[meV]}$PEPTIDE1,PEPTIDE1,1:R1-11:R2$$$V2.0)	25

Further lines, the compound ahead of its results:

Structure (SMILES)	Relative IC50, i.e. IC50 (cyclosporin A)/IC50 (test compound) [1]	IC50 [2] [ng/mL]	ED50, dose effective in reducing the joint swelling by 50% [3] [mg/kg]
C/C=C/C[C@@H](C)[C@@H](O)[C@H]1C(=O)N[C@@H](CC)C(=O)N(C)C(Sc2ccncc2)C(=O)N(C)[C@@H](CC(C)C)C(=O)N[C@@H](C(C)C)C(=O)N(C)[C@@H](CC(C)C)C(=O)N[C@@H](C)C(=O)N[C@H](C)C(=O)N(C)[C@@H](CC(C)C)C(=O)N(C)[C@@H](CC(C)C)C(=O)N(C)[C@@H](C(C)C)C(=O)N1C (stereo partly drawn) [Example 2, 3-(Pyridyl-4-thio)-cyclosporin A] (HELM PEPTIDE1{[C/C=C/C[C@@H](C)[C@@H](O)[C@@H](C(=O)[*:2])N(C)[*:1]].[Abu].[CN(C(Sc1ccncc1)C(=O)[*:2])[*:1]].[meL].V.[meL].A.[dA].[meL].[meL].[meV]}$PEPTIDE1,PEPTIDE1,1:R1-11:R2$$$V2.0)	0.2	1000 (≈ 0.762 µM)	25
C/C=C/C[C@@H](C)[C@@H](O)[C@H]1C(=O)N[C@@H](CC)C(=O)N(C)C(Sc2ccccn2)C(=O)N(C)[C@@H](CC(C)(C)O)C(=O)N[C@@H](C(C)C)C(=O)N(C)[C@@H](CC(C)C)C(=O)N[C@@H](C)C(=O)N[C@H](C)C(=O)N(C)[C@@H](CC(C)C)C(=O)N(C)[C@@H](CC(C)C)C(=O)N(C)[C@@H](C(C)C)C(=O)N1C (stereo partly drawn) [Example 3, 3-(Pyridyl-2-thio)-4-(γ-hydroxy-methylleucine)-cyclosporin] (cyclo([MeBmt][Abu][X2][NMeLeu(4-OH)]V[NMeL]A[dA][NMeL][NMeL][NMeV]))	0.2	1000 (≈ 0.753 µM)	25
C/C=C/C[C@@H](C)[C@@H](O)[C@H]1C(=O)N[C@@H](CC)C(=O)N(C)C(Sc2ccccc2)C(=O)N(C)[C@@H](CC(C)C)C(=O)N[C@@H](C(C)C)C(=O)N(C)[C@@H](CC(C)C)C(=O)N[C@@H](C)C(=O)N[C@H](C)C(=O)N(C)[C@@H](CC(C)C)C(=O)N(C)[C@@H](CC(C)C)C(=O)N(C)[C@@H](C(C)C)C(=O)N1C (stereo partly drawn) [Example 8, 3-(Phenylthio)-cyclosporin A] (HELM PEPTIDE1{[C/C=C/C[C@@H](C)[C@@H](O)[C@@H](C(=O)[*:2])N(C)[*:1]].[Abu].[CN(C(Sc1ccccc1)C(=O)[*:2])[*:1]].[meL].V.[meL].A.[dA].[meL].[meL].[meV]}$PEPTIDE1,PEPTIDE1,1:R1-11:R2$$$V2.0)	0.4	500 (≈ 0.381 µM)	25
C/C=C/C[C@@H](C)[C@@H](OC(C)=O)[C@H]1C(=O)N[C@@H](CC)C(=O)N(C)C(OC(C)=O)C(=O)N(C)[C@@H](CC(C)C)C(=O)N[C@@H](C(C)C)C(=O)N(C)[C@@H](CC(C)C)C(=O)N[C@@H](C)C(=O)N[C@H](C)C(=O)N(C)[C@@H](CC(C)C)C(=O)N(C)[C@@H](CC(C)C)C(=O)N(C)[C@@H](C(C)C)C(=O)N1C (stereo partly drawn) [Example 12, 3′,3-Diacetoxy-cyclosporin]	1.5	150 (≈ 0.115 µM)	15

From patent US6583265B1, “Cyclosporins” (C-Chem AG, priority 1998, dated 2003)
